This is an account of results in US20200010479A1, “INHIBITORS OF MICROBIAL BETA-GLUCURONIDASE ENZYMES AND USES THEREOF” (THE UNIVERSITY OF NORTH CAROLINA AT CHAPEL HILL, priority 2017, published 2020).

For one series, the target named is E. coli GUS (Escherichia coli, UniProt P05804). The experiment in a line: In vitro EcGUS inhibition, cleavage of PNPG by purified E. coli GUS. Format: biochemical. To be noted: PNPG substrate, 37° C., 2 hours. As for the experimental part:
To assess GUS inhibition, cleavage of p-nitrophenyl-β-D-glucuronide (PNPG) by purified E. coli GUS in the presence of inhibitor was measured. The reaction was performed in 96-well clear-bottom plates at a volume of 50 μL. Each reaction contained 5 μL of 100 nM E. coli GUS, 5 μL of inhibitor at various concentrations, 10 μL of 250 mM HEPES and 250 mM NaCl assay buffer, and 30 μL of 1.5 mM PNPG. The reaction was initiated by addition of PNPG and incubated at 37° C. for 2 hours. End point absorbance values at 410 nm were measured using a PHERAstar Plus microplate reader. The resulting data were fit with a four-parameter logistic log function in SigmaPlot 13.0 to determine IC50 values. IC50 was defined as the concentration of inhibitor that yields a 50% reduction in product formation at equilibrium.

Series [1] concerns GUS activity in human fecal extracts. To be noted: cited from earlier work.
The subject of series [2] is bacteria cultured in vitro. Conditions: cited from earlier work.
For series [3] the following is noted: rats; cited from earlier work.
Series [4] has as its system gut microbial GUS enzymes. Conditions: co-treatment with irinotecan; cited from earlier work.
The subject of series [5] is panel of purified GUS enzymes present in the human gut microbiota. The experiment in a line: SN-38-G processing by panel of purified GUS enzymes, with inhibitors. Format: biochemical. Conditions: enzymes other than E. coli GUS.

E. coli GUS, sequence (P05804 whole entry): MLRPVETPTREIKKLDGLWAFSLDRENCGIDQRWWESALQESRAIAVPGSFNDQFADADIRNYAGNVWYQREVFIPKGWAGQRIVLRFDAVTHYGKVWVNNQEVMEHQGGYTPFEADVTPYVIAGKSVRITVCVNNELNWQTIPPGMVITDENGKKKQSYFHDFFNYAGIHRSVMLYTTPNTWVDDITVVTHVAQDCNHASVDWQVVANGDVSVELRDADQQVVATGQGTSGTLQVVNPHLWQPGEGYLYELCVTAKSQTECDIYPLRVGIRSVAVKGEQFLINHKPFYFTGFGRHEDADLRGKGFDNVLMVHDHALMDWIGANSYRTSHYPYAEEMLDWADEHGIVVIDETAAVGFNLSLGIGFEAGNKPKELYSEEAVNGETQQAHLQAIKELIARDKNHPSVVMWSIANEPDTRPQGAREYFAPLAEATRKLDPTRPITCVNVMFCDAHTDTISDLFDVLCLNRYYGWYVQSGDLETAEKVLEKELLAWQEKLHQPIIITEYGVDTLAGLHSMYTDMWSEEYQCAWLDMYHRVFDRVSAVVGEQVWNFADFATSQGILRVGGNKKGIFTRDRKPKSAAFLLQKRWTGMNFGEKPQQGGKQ

A word on the IC50: it is the concentration needed to halve the response being measured. The low end stands for greater potency, the high end for weaker potency. `C1CCC(Nc2nc3sc4c(N5CCNCC5)nnnc4c3c3c2CCCC3)CC1` [Compound 14] registered an IC50 against E. coli GUS of 800 ± 200 nM. Same read-out and setting: the result for `C1CCc2c(c(N3CCOCC3)nc3sc4c(NC5CCNCC5)nnnc4c23)C1` [Compound 4] reads 30000 ± 10000 nM. Still for that read-out and setting: for `CN(C)c1ccc2c(n1)sc1c(N3CCNCC3)nnnc12` [Compound 27] the value was 80 ± 30 nM. Still for that read-out and setting: for `CNc1nc(N2CCNCC2)c2sc3ncccc3c2n1` [Compound 31] the value was 36 ± 2 nM.

On to `c1ccc(-c2ccc3c(n2)sc2c(N4CCNCC4)ncnc23)cc1` [Compound 23], for which the IC50 at E. coli GUS stood at 130 ± 30 nM. On E. coli GUS, `c1ccc(CNc2nc3sc4c(N5CCNCC5)nnnc4c3c3c2CCCC3)cc1` [Compound 17] showed an IC50 of 190 ± 40 nM. Still for that read-out and setting: the result for `CNc1nc(N2CCNCC2)c2sc3nc(N4CCOCC4)ccc3c2n1` [Compound 21] reads 100 ± 20 nM. The compound `C1CCc2c(c(N3CCOCC3)nc3sc4c(N5CCCNCC5)nnnc4c23)C1` [Compound 8] gave an IC50 on E. coli GUS of 9000 ± 2000 nM. Still for that read-out and setting: for `CN1CCN(c2nnnc3c2sc2nc(N4CCOCC4)c4c(c23)CCCC4)CC1` [Compound 2] the value was 37600 ± 700 nM. For `C[C@@H]1CN(c2nnnc3c2sc2nc(N4CCOCC4)c4c(c23)CCCC4)CCN1` [Compound 6], 2400 ± 400 nM corresponded to half-maximal inhibition against E. coli GUS (IC50).

Compound `CNc1nc(N2CCNCC2)c2sc3nc(N(C)C)ccc3c2n1` [Compound 28] yielded an IC50 at E. coli GUS of 42 ± 6 nM. On E. coli GUS, `CN(C)c1nc(N2CCNCC2)c2sc3nc(-c4ccccc4)ccc3c2n1` [Compound 25] returned an IC50 of 190 ± 90 nM. The compound `c1ccc(-c2ccc3c(n2)sc2c(N4CCNCC4)nnnc23)cc1` [Compound 22] showed an IC50 against E. coli GUS of 150 ± 50 nM. As for `c1cnc2sc3c(N4CCNCC4)ncnc3c2c1` [Compound 30], the midpoint of inhibition at E. coli GUS, the IC50, lay at 80 ± 20 nM. On E. coli GUS, `CNc1nc(N2CCNCC2)c2sc3nc(-c4ccccc4)ccc3c2n1` [Compound 24] had an IC50 of 180 ± 90 nM.

In the case of `C1CCN(c2nc3sc4c(N5CCNCC5)nnnc4c3c3c2CCCC3)CC1` [Compound 13], the IC50 at E. coli GUS was determined as 500 ± 200 nM. Still for that read-out and setting: the result for `NCCNc1nnnc2c1sc1nc(N3CCOCC3)c3c(c12)CCCC3` [Compound 9] reads 5600 ± 500 nM. Same read-out and setting: the result for `OCCNc1nc(N2CCNCC2)c2sc3nc(-c4ccccc4)ccc3c2n1` [Compound 26] reads 120 ± 20 nM. For `Clc1ccc2c(c1)C(N1CCNCC1)=Nc1ccccc1O2` [amoxapine], in series [1], the “block of GUS activity in human fecal extracts” value is “incompletely blocks”. Moreover, the “viability of bacteria cultured in vitro” value in series [2] is given as “reduced the viability”. In turn, `CNc1ccc2c(n1)sc1c(N3CCNCC3)nc(NC)nc12` [Compound 29] displayed an IC50 at E. coli GUS of 40 ± 8 nM. Still for that read-out and setting: the result for `c1cc2c(nc1N1CCOCC1)sc1c(N3CCNCC3)nnnc12` [Compound 19] reads 170 ± 40 nM. On to `CCOc1ccc(NC(=S)N(CCO)Cc2cc3cc(C)cc(C)c3[nH]c2=O)cc1` [Inh1], for which the “NSAID-induced intestinal anastomosis after surgical resection” value in series [3] is “reduce NSAID-induced intestinal anastomosis”. In addition, the “gut toxicity and diarrhea” value in series [4] is “alleviated gut toxicity and diarrhea”. The “effects on other GUS enzymes, including others from the L1 category” value in series [5] is “weak effects”. `C1CCc2c(c(N3CCOCC3)nc3sc4c(N5CC6CC5CN6)nnnc4c23)C1` (centres unmarked) [Compound 5]: the IC50 against E. coli GUS is 9000 ± 2000 nM.

In turn, `C[C@H]1CN(c2nnnc3c2sc2nc(N4CCOCC4)c4c(c23)CCCC4)CCN1` [Compound 7] displayed an IC50 on E. coli GUS of 2400 ± 300 nM. Same read-out and setting: for `C1CCc2c(c(N3CCNCC3)nc3sc4c(N5CCNCC5)nnnc4c23)C1` [Compound 12] the value was 130 ± 10 nM.

On E. coli GUS, `CN(C)c1nc2sc3c(N4CCNCC4)nnnc3c2c2c1CCCC2` [Compound 15] registered an IC50 of 130 ± 10 nM.
